Data: patent publication US20070197452A1, “Treatment of amyloid-related diseases” (priority 2006, published 2007)
“Also recorded” adds a separate entry of the source.

Experiments:
Format in all cases: in vivo, mouse
[1] = system: TgCRND8 mice; test: Morris water maze spatial reference memory test; settings: for spatial learning performance compared with non-Tg littermates / spatial learning performance compared with untreated TgCRND8 littermates: 28 days of treatment from 5 months of age, tested at 6 months; for cognitive performance compared with non-Tg mice / cognitive performance compared with untreated TgCRND8 mice / cognitive performance compared with non-Tg littermates: prophylactic
Procedure: Behavioural tests: Morris Water Maze testing was performed as previously described. After non-spatial pre-training, mice underwent place discrimination training for 5 days with 4-trials per day, followed by a cued visible platform to rule out general motivational, learning deficits and motor problems, and a probe trial to evaluate memory. […] Open field test for motor activity was preformed as described previously. Duration of walking, pausing and grooming were analyzed as indices of spontaneous locomotor activity. Sensorimotor function was examined with an EconomexTM accelerating rotarod (Columbus Instruments, Columbus, Ohio), as described elsewhere. The rod was set to accelerate at a rate of 0.2 r.p.m./s, from an initial, constant speed of 5 r.p.m. Latency to fall was recorded in four daily trials, conducted at 30 min intervals. All mice were trained for seven days before testing. The test day performance score for each animal was obtained by summing its latency to fall over the four trials Behavioral tests. Morris water maze testing was carried out as previously described. After nonspatial pretraining, mice underwent place discrimination training for 5 d with four trials per day, followed by a cued visible platform trial and a probe trial. An open-field test for motor activity was carried out as described previously. Sensorimotor function was assessed with an Economex accelerating rotarod (Columbus Instruments) as previously described. Behavioural tests. Morris Water Maze testing was performed as previously described. After non-spatial pre-training, mice underwent place discrimination training for 5 days with 4-trials per day, followed by a cued visible platform to rule out general motivational, learning deficits and motor problems, and a probe trial to evaluate memory. The probe trial was conducted at 72 h after the last testing, and used an annulus-crossing index to assess spatial recall. The annulus-crossing index measures the number of passes over the original platform position relative to passes over the other three quadrants. […] Open field test for motor activity was performed as described previously

[2] = system: TgCRND8 mice; test: Gliosis quantitation (GFAP astrocytes, CD68 microglia); settings: prophylactic treatment; for astrogliosis (percent brain area covered): 4 and 6 months of age; for microgliosis / microglial activation (percent brain area covered): 6 months of age
Procedure: Gliosis Quantitation. Five randomly selected, evenly spaced, sagittal sections were collected from paraformaldehyde-fixed and frozen hemispheres of treated and control mice. Sections were immunolabelled for astrocytes with anti-rat GFAβ IgG2a (Dako; diluted 1:50) and for microglia with anti-rat CD68 IgG2b (Dako; 1:50). Digital images were captured using a Coolsnap digital camera (Photometrics, Tuscon, Ariz.) mounted to a Zeiss, Axioscope 2 Plus microscope. Images were analysed using Openlab 3.08 imaging software (Improvision, Lexington Mass.). Quantification of gliosis. Five randomly selected, evenly spaced sagittal sections from paraformaldehyde-fixed and frozen hemispheres of treated and control mice were collected. Sections were immunolabeled for astrocytes with an antibody against rat GFAβ IgG2a (Dako; diluted 1:50) and for microglia with an antibody to rat CD68 IgG2b (Dako; 1:50). Digital images were captured using a Coolsnap digital camera (Photometrics) mounted to a Zeiss, Axioscope 2 Plus microscope. Images were analyzed using Openlab 3.08 imaging software (Improvision).

[3] = system: TgCRND8 mice; test: Survival census (Kaplan-Meier); settings: prophylactic treatment, vs untreated, n=35 per group
Procedure: Survival Census: The probability of survival was assessed by the Kaplan-Meier technique, computing the probability of survival at every occurrence of death, thus making it suitable for small sample sizes. For the analyses of survival, 35 mice were used for each treatment group. The Tarone-Ware test was used to assess effects of treatments.
Survival census. The probability of survival was assessed using the Kaplan-Meier technique, computing the probability of survival at every occurrence of death, thus making it suitable for small sample sizes. For the analyses of survival, 35 mice were used for each treatment group. The Tarone-Ware test was used to assess effects of treatments.

OC1C(O)C(O)C(O)C(O)C1O (stereo not drawn) [epi-cyclohexanehexol, 1,2,3,4,5/6-(epi-) cyclohexanehexol, reference compound]
spatial learning performance compared with non-Tg littermates [1]: significantly poorer than the performance of their non-Tg littermates; also recorded: remained impaired with respect to non-Tg littermates; also recorded: remained impaired with respect to nontransgenic littermates | spatial learning performance compared with untreated TgCRND8 littermates [1]: not significantly different from that of untreated TgCRND8 littermates; also recorded: ineffective at reversing behavioral deficits | spatial learning performance compared with non-Tg littermates ([1]; listed as AZD-102): remained impaired with respect to non-Tg littermates | spatial learning performance compared with untreated TgCRND8 littermates ([1]; listed as AZD-102): not different from untreated TgCRND8 littermates | cognitive performance compared with non-Tg mice ([1]; 6 weeks to 4 months of age): significantly different from treated and untreated nontransgenic mice | cognitive performance compared with untreated TgCRND8 mice ([1]; 6 weeks to 4 months of age): significant behavioral improvement | cognitive performance compared with non-Tg mice ([1]; 6 weeks to 4 months of age, listed as AZD-102): significantly different from treated and untreated non-Tg mice | cognitive performance compared with non-Tg littermates ([1]; 6 weeks to 6 months of age): indistinguishable from nontransgenic littermates; also recorded: approached that of nontransgenic littermates | cognitive performance compared with untreated TgCRND8 mice ([1]; 6 weeks to 6 months of age): significantly better cognitive function compared to untreated TgCRND8 littermates | cognitive performance compared with non-Tg littermates ([1]; 6 weeks to 6 months of age, listed as AZD-102): approached that of non-Tg littermates | astrogliosis (percent brain area covered) [2]: decreased the percent brain area covered in astrogliosis | astrogliosis (percent brain area covered) ([2]; listed as AZD-102): decreased the percent brain area covered in astrogliosis; also recorded: decrease in astrogliosis | astrogliosis (percent brain area covered) ([2]; listed as Epi-cyclohexanehexol): decreased the astrogliotic response; also recorded: decrease in astrogliosis | microgliosis / microglial activation (percent brain area covered) [2]: decreased the percent brain area covered with microgliosis | microgliosis / microglial activation (percent brain area covered) ([2]; listed as AZD-102): decreased the percent brain area covered with microgliosis | microgliosis / microglial activation (percent brain area covered) ([2]; listed as Epi-cyclohexanehexol): no effect on microglial activation | survival (Kaplan-Meier cumulative survival) ([3]; listed as AZD-102): did not significantly improve survival | survival (Kaplan-Meier cumulative survival) ([3]; listed as Epi-cyclohexanehexol): did not significantly improve survival
